Test system: normal human dermal fibroblasts (NHDF)
Test: Procollagen I assay (ELISA) in culture medium of normal human dermal fibroblasts exposed to UVA, formulas spread on PMMA plates placed over the cells
Format: cell-based
Settings: for Mean procollagen 1 (normalized by Cyquant signal and relative to the unexposed Control): 48 hours after last exposure
Procedure: The efficacy of a combination in accordance with the invention and outside the invention is tested by assaying procollagen 1 in a culture medium of normal human dermal fibroblasts exposed to UVA.
• Normal human dermal fibroblasts (NHDF) obtained from a mammary plasty. • Culture: 37° C., 5% CO2. • Culture medium and test medium: MEM (Gibco 21090-022) containing 10% foetal calf serum (FCS) (Gibco 10270-098), 2 mM L-glutamine (Gibco 25030-024), 1 mM sodium pyruvate (Gibco 11360-039), 1× non-essential amino acids (Gibco 11140-035), 250 ng/ml amphotericin B (Gibco 15290-018) and penicillin/streptomycin 20 U/20 […].
The normal human dermal fibroblasts were seeded in complete MEM medium and incubated for 72 h at 37° C. and 5% CO2.
The cells are then exposed for 3 consecutive days to a dose of 25 J/cm^2 of total UVA using an Oriel solar simulator fitted with a WG335 filter. Depending on the conditions, a PMMA plate to which the formula comprising the screening agents according to the invention or outside the invention or the Placebo formula is applied is placed over the cells during exposure. After each exposure, the cells are treated or not with ascorbic acid (10 μM) diluted in the culture medium. The cells are then incubated at 37° C., 5% CO2. 48 hours after the last exposure, a cell viability test (XTT Roche cat. 11465015001) is performed, and the number of cells in each well is evaluated by means of a Cyquant assay (Molecular Probes C7026). The media are collected and a procollagen I assay is performed by ELISA (Abcam ab210966). Each experimental condition is performed in duplicate or triplicate and at least three independent experiments are performed.

[1] = 25 J/cm^2 total UVA on 3 consecutive days, formula 1.3 mg/cm^2 on PMMA plate over the cells, ascorbic acid 10 μM where given

With `O=C1O[C@H]([C@@H](O)CO)C(O)=C1O` [VitC, ascorbic acid] the “relative % relative to the control 0 J” value (0 J/cm^2 (unexposed), ascorbic acid 10 μM) was “+260.5%”, the “Mean procollagen 1 (normalized by Cyquant signal and relative to the unexposed Control)” value (0 J/cm^2 (unexposed), ascorbic acid 10 μM, unexposed Control = 100) was 360.5 and the “relative % relative to the control 0 J” value [1] was “+29.7%”. For the same compound, the “Mean procollagen 1 (normalized by Cyquant signal and relative to the unexposed Control)” value [1] was 129.7, the “secretion of procollagen 1 by the fibroblasts” value (ascorbic acid tested at 10 μM, result in words) was “significantly increased” and the “ability of ascorbic acid to induce procollagen 1 secretion” value (effect of UVA, result in words) was “significantly reduced”.

From US20240423888A1, “COSMETIC AND/OR DERMATOLOGICAL COMPOSITION COMPRISING AT LEAST ONE MEROCYANINE AND AT LEAST ASCORBIC ACID AND/OR A DERIVATIVE THEREOF” (L'OREAL, priority 2021, published 2024)
